Test results taken from patent publication US8952024B2, “Herbicidal pyrimidone derivatives” (E I du Pont de Nemours and Company, priority 2009, dated 2015).

Experiments:
Assay in all cases: Test D pre-/postemergence plant response
Type in all cases: in vivo
Conditions in all cases: Postemergence
[1] = test system: Surinam grass (Brachiaria decumbens)
Summary of the method: (§1)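 Visual 0–100 scoring (100 = complete control) versus untreated controls after 14–21 greenhouse days. Compounds, formulated in surfactant-containing non-phytotoxic solvent, were applied preemergence to seeded loam/sand and postemergence to 2–18 cm plants (1–4 leaves).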

[2] = test system: barnyardgrass (Echinochloa crus-galli)
Summary of the method: as §1

[3] = test system: black mustard (Brassica nigra)
Summary of the method: as §1

[4] = test system: bluegrass (annual bluegrass, Poa annua)
Summary of the method: as §1

[5] = test system: chickweed (common chickweed, Stellaria media)
Summary of the method: as §1

[6] = test system: field bindweed (Convolvulus arvensis)
Summary of the method: as §1

[7] = test system: goosegrass (Eleusine indica)
Summary of the method: as §1

[8] = test system: green foxtail (Setaria viridis)
Summary of the method: as §1

[9] = test system: guineagrass (Panicum maximum)
Summary of the method: as §1

[10] = test system: itchgrass (Rottboellia cochinchinensis)
Summary of the method: as §1

[11] = test system: johnsongrass (Sorghum halepense)
Summary of the method: as §1

[12] = test system: kochia (Kochia scoparia)
Summary of the method: as §1

[13] = test system: large crabgrass (Digitaria sanguinalis)
Summary of the method: as §1

[14] = test system: mallow (common mallow, Malva sylvestris)
Summary of the method: as §1

[15] = test system: morningglory (pitted morningglory, Ipomoea lacunosa)
Summary of the method: as §1

[16] = test system: nutsedge (purple nutsedge, Cyperus rotundus)
Summary of the method: as §1

[17] = test system: signalgrass (broadleaf signalgrass, Brachiaria platyphylla)
Summary of the method: as §1

[18] = test system: sowthistle (common sowthistle, Sonchus oleraceous)
Summary of the method: as §1

[19] = 62 g ai/ha, scale 0 to 100 (0 no effect, 100 complete control)
[20] = 125 g ai/ha, scale 0 to 100 (0 no effect, 100 complete control)
[21] = 250 g ai/ha, scale 0 to 100 (0 no effect, 100 complete control)

CCCCn1c(-c2cc(F)cc(F)c2)ncc(C(=O)C2=C(O)C3CCC(C3)C2=O)c1=O (stereo not drawn) [Compound 245]
Plant response rating, Surinam Grass ([1]; 31 g ai/ha, scale 0 to 100): 75 | Plant response rating, Surinam Grass [1, 19]: 75 | Plant response rating, Surinam Grass [1, 20]: 75 | Plant response rating, Surinam Grass [1, 21]: 75 | Plant response rating, Barnyardgrass ([2]; 31 g ai/ha, scale 0 to 100): 80 | Plant response rating, Barnyardgrass [2, 19]: 85 | Plant response rating, Barnyardgrass [2, 20]: 85 | Plant response rating, Barnyardgrass [2, 21]: 90 | Plant response rating, Black Mustard ([3]; 31 g ai/ha, scale 0 to 100): 75 | Plant response rating, Black Mustard [3, 19]: 95 | Plant response rating, Black Mustard [3, 20]: 98 | Plant response rating, Black Mustard [3, 21]: 98 | Plant response rating, Bluegrass ([4]; 31 g ai/ha, scale 0 to 100): 5 | Plant response rating, Bluegrass [4, 19]: 20 | Plant response rating, Bluegrass [4, 20]: 35 | Plant response rating, Bluegrass [4, 21]: 35 | Plant response rating, Chickweed ([5]; 31 g ai/ha, scale 0 to 100): 5 | Plant response rating, Chickweed [5, 19]: 25 | Plant response rating, Chickweed [5, 20]: 50 | Plant response rating, Chickweed [5, 21]: 50 | Plant response rating, Field Bindweed ([6]; 31 g ai/ha, scale 0 to 100): 50 | Plant response rating, Field Bindweed [6, 19]: 50 | Plant response rating, Field Bindweed [6, 20]: 60 | Plant response rating, Field Bindweed [6, 21]: 70 | Plant response rating, Goosegrass ([7]; 31 g ai/ha, scale 0 to 100): 70 | Plant response rating, Goosegrass [7, 19]: 70 | Plant response rating, Goosegrass [7, 20]: 70 | Plant response rating, Goosegrass [7, 21]: 75 | Plant response rating, Foxtail, Green ([8]; 31 g ai/ha, scale 0 to 100): 85 | Plant response rating, Foxtail, Green [8, 19]: 90 | Plant response rating, Foxtail, Green [8, 20]: 95 | Plant response rating, Foxtail, Green [8, 21]: 95 | Plant response rating, Guineagrass ([9]; 31 g ai/ha, scale 0 to 100): 75 | Plant response rating, Guineagrass [9, 19]: 75 | Plant response rating, Guineagrass [9, 20]: 75 | Plant response rating, Guineagrass [9, 21]: 85 | Plant response rating, Itchgrass ([10]; 31 g ai/ha, scale 0 to 100): 70 | Plant response rating, Itchgrass [10, 19]: 70 | Plant response rating, Itchgrass [10, 20]: 75 | Plant response rating, Itchgrass [10, 21]: 75 | Plant response rating, Johnsongrass ([11]; 31 g ai/ha, scale 0 to 100): 70 | Plant response rating, Johnsongrass [11, 19]: 75 | Plant response rating, Johnsongrass [11, 20]: 75 | Plant response rating, Johnsongrass [11, 21]: 75 | Plant response rating, Kochia ([12]; 31 g ai/ha, scale 0 to 100): 50 | Plant response rating, Kochia [12, 19]: 65 | Plant response rating, Kochia [12, 20]: 70 | Plant response rating, Kochia [12, 21]: 75 | Plant response rating, Crabgrass, Large ([13]; 31 g ai/ha, scale 0 to 100): 70 | Plant response rating, Crabgrass, Large [13, 19]: 70 | Plant response rating, Crabgrass, Large [13, 20]: 75 | Plant response rating, Crabgrass, Large [13, 21]: 75 | Plant response rating, Mallow ([14]; 31 g ai/ha, scale 0 to 100): 35 | Plant response rating, Mallow [14, 19]: 50 | Plant response rating, Mallow [14, 20]: 50 | Plant response rating, Mallow [14, 21]: 70 | Plant response rating, Morningglory ([15]; 31 g ai/ha, scale 0 to 100): 70 | Plant response rating, Morningglory [15, 19]: 75 | Plant response rating, Morningglory [15, 20]: 80 | Plant response rating, Morningglory [15, 21]: 80 | Plant response rating, Nutsedge, Purple ([16]; 31 g ai/ha, scale 0 to 100): 5 | Plant response rating, Nutsedge, Purple [16, 19]: 5 | Plant response rating, Nutsedge, Purple [16, 20]: 5 | Plant response rating, Nutsedge, Purple [16, 21]: 20 | Plant response rating, Signalgrass ([17]; 31 g ai/ha, scale 0 to 100): 10 | Plant response rating, Signalgrass [17, 19]: 40 | Plant response rating, Signalgrass [17, 20]: 50 | Plant response rating, Signalgrass [17, 21]: 75 | Plant response rating, Sowthistle ([18]; 31 g ai/ha, scale 0 to 100): 95 | Plant response rating, Sowthistle [18, 19]: 95 | Plant response rating, Sowthistle [18, 20]: 95 | Plant response rating, Sowthistle [18, 21]: 95
